Legend:
MCF-7 cells = assay: Cell viability; assay type: cell-based; details: for IC50: Homo sapiens, MCF7, 72 h, read-out: Anti-proliferative activity IC50, MCF-7; for Antiproliferative activity against MCF-7, in words: MCF-7 cells
A549 cells = assay: Cell viability; assay type: cell-based; details: for Antiproliferative activity against A549, in words: A549 cells; for IC50: Homo sapiens, A549, 72 h, read-out: Anti-proliferative activity IC50, A549

Compound | IC50 (MCF-7 cells) [µM] | Antiproliferative activity against MCF-7, in words (MCF-7 cells) | Antiproliferative activity against A549, in words (A549 cells) | IC50 (A549 cells) [µM]
CC[C@@H]1OC(=O)[C@@H](C)[C@H](O[C@H]2C[C@@](C)(OC)[C@@H](O)[C@H](C)O2)[C@@H](C)[C@H](O[C@H]2O[C@@H](C)C[C@@H](N(C)C)[C@@H]2O)[C@](C)(O)C[C@H](C)CN(Cc2ccc(-c3cn(CCCCC(=O)NO)nn3)cc2)[C@H](C)[C@H](O)[C@@]1(C)O [Compound 8d, (Azithromycin-(N10-(4-triazolylbenzyl)))-N-hydroxypentanamide] | > 20 | devoid of antiproliferative activities | devoid of antiproliferative activities | > 20
CC[C@@H]1OC(=O)[C@H](C)[C@@H](O[C@@H]2C[C@](C)(OC)[C@H](O)[C@@H](C)O2)[C@@H](C)[C@@H](O[C@@H]2O[C@H](C)C[C@H](N(C)Cc3ccccc3-c3cn(CCCCCCC(=O)NO)nn3)[C@H]2O)[C@](C)(O)C[C@@H](C)CN(C)[C@H](C)[C@@H](O)[C@]1(C)O [Compound 15b, (Azithromycin-3′-(N-(2-triazolylbenzyl)))-N-hydroxyheptanamide] | > 20 | devoid of antiproliferative activities | devoid of antiproliferative activities | > 20
CC[C@@H]1OC(=O)[C@H](C)[C@@H](O[C@@H]2C[C@](C)(OC)[C@H](O)[C@@H](C)O2)[C@@H](C)[C@@H](O[C@@H]2O[C@H](C)C[C@H](N(C)Cc3cccc(-c4cn(CCCCCCC(=O)NO)nn4)c3)[C@H]2O)[C@](C)(O)C[C@@H](C)CN(C)[C@H](C)[C@@H](O)[C@]1(C)O [Compound 16b, (Azithromycin-3′-(N-(3-triazolylbenzyl)))-N-hydroxyheptanamide] | – | potently inhibited | potently inhibited | –
CC[C@H]1OC(=O)[C@@H](C)[C@H](O[C@H]2C[C@@](C)(OC)[C@@H](O)[C@H](C)O2)[C@H](C)[C@H](O[C@H]2O[C@@H](C)C[C@@H](N(C)Cc3ccc(-c4cn(CCCC(=O)NO)nn4)cc3)[C@@H]2O)[C@@](C)(O)C[C@H](C)CN(C)[C@@H](C)[C@H](O)[C@@]1(C)O [Compound 17c] | > 20 | devoid of antiproliferative activities | devoid of antiproliferative activities | > 20
CC[C@H]1OC(=O)[C@H](C)C(=O)[C@H](C)[C@@H](O[C@@H]2O[C@H](C)C[C@H](N(C)Cc3ccccc3-c3cn(CCCCCCC(=O)NO)nn3)[C@H]2O)[C@@](C)(OC)C[C@@H](C)C2=NCCN3C(=O)O[C@@]1(C)[C@H]3[C@H]2C [Compound 24b, (Tricyclic Ketolide-3′-(N-(2-triazolylbenzyl)))-N-hydroxyheptanamide] | > 20 | devoid of antiproliferative activities | devoid of antiproliferative activities | > 20
CC[C@H]1OC(=O)[C@@H](C)[C@H](O[C@H]2C[C@@](C)(OC)[C@](O)(CN(C)Cc3ccc(-c4cn(CCCCCCC(=O)NO)nn4)cc3)[C@H](C)O2)[C@H](C)[C@H](O[C@H]2O[C@@H](C)C[C@@H](N(C)C)[C@@H]2O)[C@@](C)(O)C[C@H](C)CN(C)[C@@H](C)[C@H](O)[C@@]1(C)O [Compound 39f, (Azithromycin-4′′-(methylamino)-N(methyl)(4-benzyltriazolyl))-N-hydroxyheptanamide] | > 20 | non-cytotoxic | non-cytotoxic | > 20

— publication PMC4685012 (Bioorganic & medicinal chemistry, 2015)
